Experiments:
[1] = test system: GLXMAW (Soybean, Williams); assay: Preemergence herbicidal evaluation; assay type: in vivo, Glycine max, (L.) Merr. cv Williams; conditions: rated 4-5 weeks after treatment
In short: (§1)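 Visual 0-9 rating vs control (stand, vigor, malformation, size, chlorosis, overall appearance), scored 4-5 wk after spraying. Seeded soil cups were treated preemergence with compound in aqueous acetone, ~0.0156-0.500 kg/ha equivalent.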

[2] = test system: IPOHE (Morningglory, Ivyleaf); assay: Postemergence herbicidal evaluation; assay type: in vivo, Ipomoea hederacea; conditions: postemergence
In short: (§2)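 Each compound, dispersed in an acetone/water mix (50/50) carrying 0.5% TWEEN 20, is nozzle-sprayed at 40 psi on approximately two-week-old seedlings at about 0.0156–0.500 kg/ha. Plants are assessed 4–5 weeks afterward on a 0–9 scale relative to control; duplicate tests are averaged.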

ECHCG (Barnyardgrass) = assay: Preemergence herbicidal evaluation; assay type: in vivo, Echinochloa crus-galli; conditions: rated 4-5 weeks after treatment
In short: as §1

[3] = test system: TRZAWR (Wheat, Winter, cv Riband); assay: Preemergence herbicidal evaluation; assay type: in vivo, Triticum aestivum; conditions: rated 4-5 weeks after treatment
In short: as §1

GALAP (Galium) = assay: Postemergence herbicidal evaluation; assay type: in vivo, Galium aparine; conditions: postemergence
In short: as §2

[4] = test system: IPOHE (Morningglory, Ivyleaf); assay: Preemergence herbicidal evaluation; assay type: in vivo, Ipomoea hederacea; conditions: rated 4-5 weeks after treatment
In short: as §1

ZEAMX (Corn, Field) = assay: Preemergence herbicidal evaluation; assay type: in vivo, Zea mays; conditions: rated 4-5 weeks after treatment
In short: as §1

CASOB (Sicklepod) [5] = assay: Preemergence herbicidal evaluation; assay type: in vivo, Cassia obtusifolia; conditions: rated 4-5 weeks after treatment
In short: as §1

[6] = test system: SAGPY (Arrowhead (Pygmaea)); assay: Preemergence weed control under flooded paddy conditions; assay type: in vivo, Sagittaria pygmaea; conditions: rated 3-4 weeks after treatment
In short: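 Using flooded silt loam (water 1.5 to 3 cm deep), seeds sown in the top 0.5 cm were exposed preemergence to compound pipetted into the flood at about 0.0313 to 0.500 kg/ha. Effects were scored 0-9 by eye three to four weeks later.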

CYPIR (Rice Flatsedge) = assay: Postemergence weed control under flooded paddy conditions; assay type: in vivo, Cyperus iria; conditions: postemergence weeds, rated 3 to 4 weeks after treatment
In short: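 Flood-water application, about 0.0313–0.500 kg/ha a.i. in aqueous/acetone 50/50 v/v; water depth 1.5–3 cm throughout. Weeds 3–5 cm, rice 1.5–2.5 leaf. Greenhouse; 0–9 visual rating vs control at 3–4 wk.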

ABUTH (Velvetleaf) = assay: Preemergence herbicidal evaluation; assay type: in vivo, Abutilon theophrasti; conditions: rated 4-5 weeks after treatment
In short: as §1

CASOB (Sicklepod) [7] = assay: Postemergence herbicidal evaluation; assay type: in vivo, Cassia obtusifolia; conditions: postemergence
In short: as §2

AMBEL (Ragweed, Common) = assay: Postemergence herbicidal evaluation; assay type: in vivo, Ambrosia artemisifolia; conditions: postemergence
In short: as §2

SMILES: COC(=O)[C@H](Cc1ccc([N+](=O)[O-])cc1)N1C(=O)CSC1=Nc1cc(-n2c(=O)cc(C(F)(F)F)n(C)c2=O)c(F)cc1Cl [Compound 78, Methyl 2-{{2-chloro-5-[3,6-dihydro-3-methyl-2,6-dioxo-4-(trifluoromethyl)-1(2H)-pyrimidinyl]-4-fluorophenyl}imino}-4-oxo-α-(p-nitrobenzyl)-3-thiazolidineacetate, L-]
- Preemergence herbicidal rating GLXMAW ([1]; rate 0.0156 kg/ha): 1.0
- Preemergence herbicidal rating GLXMAW ([1]; rate 0.0313 kg/ha): 0.0
- Preemergence herbicidal rating GLXMAW ([1]; rate 0.0625 kg/ha): 0.0
- Preemergence herbicidal rating GLXMAW ([1]; rate 0.1250 kg/ha): 0.0
- Preemergence herbicidal rating GLXMAW ([1]; rate 0.2500 kg/ha): 1.0
- IPOHE herbicidal rating ([2]; rate 0.0158 kg/ha): 9.0
- IPOHE herbicidal rating ([2]; rate 0.0315 kg/ha): 9.0
- IPOHE herbicidal rating ([2]; rate 0.0630 kg/ha): 9.0
- Preemergence herbicidal rating ECHCG (ECHCG (Barnyardgrass); rate 0.0156 kg/ha): 0.0
- Preemergence herbicidal rating ECHCG (ECHCG (Barnyardgrass); rate 0.0313 kg/ha): 0.0
- Preemergence herbicidal rating ECHCG (ECHCG (Barnyardgrass); rate 0.0625 kg/ha): 0.0
- Preemergence herbicidal rating ECHCG (ECHCG (Barnyardgrass); rate 0.1250 kg/ha): 0.0
- Preemergence herbicidal rating ECHCG (ECHCG (Barnyardgrass); rate 0.2500 kg/ha): 1.0
- Preemergence herbicidal rating TRZAWR ([3]; rate 0.0156 kg/ha): 0.0
- Preemergence herbicidal rating TRZAWR ([3]; rate 0.0313 kg/ha): 0.0
- Preemergence herbicidal rating TRZAWR ([3]; rate 0.0625 kg/ha): 0.0
- Preemergence herbicidal rating TRZAWR ([3]; rate 0.1250 kg/ha): 0.0
- Preemergence herbicidal rating TRZAWR ([3]; rate 0.2500 kg/ha): 0.0
- GALAP herbicidal rating (GALAP (Galium); rate 0.0158 kg/ha): 1.0
- GALAP herbicidal rating (GALAP (Galium); rate 0.0315 kg/ha): 1.0
- GALAP herbicidal rating (GALAP (Galium); rate 0.0630 kg/ha): 2.0
- Preemergence herbicidal rating IPOHE ([4]; rate 0.0156 kg/ha): 0.0
- Preemergence herbicidal rating IPOHE ([4]; rate 0.0313 kg/ha): 0.0
- Preemergence herbicidal rating IPOHE ([4]; rate 0.0625 kg/ha): 0.0
- Preemergence herbicidal rating IPOHE ([4]; rate 0.1250 kg/ha): 0.0
- Preemergence herbicidal rating IPOHE ([4]; rate 0.2500 kg/ha): 3.0
- Preemergence herbicidal rating ZEAMX (ZEAMX (Corn, Field); rate 0.0156 kg/ha): 0.0
- Preemergence herbicidal rating ZEAMX (ZEAMX (Corn, Field); rate 0.0313 kg/ha): 0.0
- Preemergence herbicidal rating ZEAMX (ZEAMX (Corn, Field); rate 0.0625 kg/ha): 0.0
- Preemergence herbicidal rating ZEAMX (ZEAMX (Corn, Field); rate 0.1250 kg/ha): 0.0
- Preemergence herbicidal rating ZEAMX (ZEAMX (Corn, Field); rate 0.2500 kg/ha): 1.0
- Preemergence herbicidal rating CASOB (CASOB (Sicklepod) [5]; rate 0.0313 kg/ha): 0.0
- Preemergence herbicidal rating CASOB (CASOB (Sicklepod) [5]; rate 0.0625 kg/ha): 0.0
- Preemergence herbicidal rating CASOB (CASOB (Sicklepod) [5]; rate 0.1250 kg/ha): 0.0
- Preemergence herbicidal rating CASOB (CASOB (Sicklepod) [5]; rate 0.2500 kg/ha): 1.0
- SAGPY herbicidal effect rating ([6]; 0.0313 kg/ha): 0.0
- SAGPY herbicidal effect rating ([6]; 0.0625 kg/ha): 0.0
- SAGPY herbicidal effect rating ([6]; 0.1250 kg/ha): 2.0
- SAGPY herbicidal effect rating ([6]; 0.2500 kg/ha): 4.0
- Herbicidal rating CYPIR (CYPIR (Rice Flatsedge); Rate 0.0313 kg/ha): 5.0
- Herbicidal rating CYPIR (CYPIR (Rice Flatsedge); Rate 0.0625 kg/ha): 5.0
- Herbicidal rating CYPIR (CYPIR (Rice Flatsedge); Rate 0.1250 kg/ha): 6.0
- Herbicidal rating CYPIR (CYPIR (Rice Flatsedge); Rate 0.2500 kg/ha): 9.0
- Preemergence herbicidal rating ABUTH (ABUTH (Velvetleaf); rate 0.0156 kg/ha): 0.0
- Preemergence herbicidal rating ABUTH (ABUTH (Velvetleaf); rate 0.0313 kg/ha): 0.0
- Preemergence herbicidal rating ABUTH (ABUTH (Velvetleaf); rate 0.0625 kg/ha): 0.0
- Preemergence herbicidal rating ABUTH (ABUTH (Velvetleaf); rate 0.1250 kg/ha): 2.0
- Preemergence herbicidal rating ABUTH (ABUTH (Velvetleaf); rate 0.2500 kg/ha): 9.0
- CASOB herbicidal rating (CASOB (Sicklepod) [7]; rate 0.0158 kg/ha): 1.0
- CASOB herbicidal rating (CASOB (Sicklepod) [7]; rate 0.0315 kg/ha): 1.0
- CASOB herbicidal rating (CASOB (Sicklepod) [7]; rate 0.0630 kg/ha): 3.0
- AMBEL herbicidal rating (AMBEL (Ragweed, Common); rate 0.0158 kg/ha): 7.0
- AMBEL herbicidal rating (AMBEL (Ragweed, Common); rate 0.0315 kg/ha): 7.0
- AMBEL herbicidal rating (AMBEL (Ragweed, Common); rate 0.0630 kg/ha): 9.0

SMILES: COC(=O)[C@H](Cc1ccccc1)N1C(=O)CS/C1=N/c1cc(-n2c(=O)cc(C(F)(F)F)n(C)c2=O)c(F)cc1Cl [Compound 72, Methyl α-benzyl-2-{{2-chloro-5-[3,6-dihydro-3-methyl-2,6-dioxo-4-(trifluoromethyl)-1(2H)-pyrimidinyl]-4-fluorophenyl]imino}-4-oxo-3-thiazolidineacetate, L-]
- Preemergence herbicidal rating GLXMAW ([1]; rate 0.0156 kg/ha): 0.0
- Preemergence herbicidal rating GLXMAW ([1]; rate 0.0313 kg/ha): 0.0
- Preemergence herbicidal rating GLXMAW ([1]; rate 0.0625 kg/ha): 0.0
- Preemergence herbicidal rating GLXMAW ([1]; rate 0.1250 kg/ha): 1.0
- Preemergence herbicidal rating GLXMAW ([1]; rate 0.2500 kg/ha): 3.0
- IPOHE herbicidal rating ([2]; rate 0.0158 kg/ha): 9.0
- IPOHE herbicidal rating ([2]; rate 0.0315 kg/ha): 7.0
- IPOHE herbicidal rating ([2]; rate 0.0630 kg/ha): 9.0
- Preemergence herbicidal rating ECHCG (ECHCG (Barnyardgrass); rate 0.0156 kg/ha): 0.0
- Preemergence herbicidal rating ECHCG (ECHCG (Barnyardgrass); rate 0.0313 kg/ha): 0.0
- Preemergence herbicidal rating ECHCG (ECHCG (Barnyardgrass); rate 0.0625 kg/ha): 0.0
- Preemergence herbicidal rating ECHCG (ECHCG (Barnyardgrass); rate 0.1250 kg/ha): 0.0
- Preemergence herbicidal rating ECHCG (ECHCG (Barnyardgrass); rate 0.2500 kg/ha): 3.0
- Preemergence herbicidal rating TRZAWR ([3]; rate 0.0156 kg/ha): 0.0
- Preemergence herbicidal rating TRZAWR ([3]; rate 0.0313 kg/ha): 0.0
- Preemergence herbicidal rating TRZAWR ([3]; rate 0.0625 kg/ha): 0.0
- Preemergence herbicidal rating TRZAWR ([3]; rate 0.1250 kg/ha): 1.0
- Preemergence herbicidal rating TRZAWR ([3]; rate 0.2500 kg/ha): 2.0
- GALAP herbicidal rating (GALAP (Galium); rate 0.0158 kg/ha): 6.0
- GALAP herbicidal rating (GALAP (Galium); rate 0.0315 kg/ha): 7.0
- GALAP herbicidal rating (GALAP (Galium); rate 0.0630 kg/ha): 9.0
- Preemergence herbicidal rating IPOHE ([4]; rate 0.0156 kg/ha): 0.0
- Preemergence herbicidal rating IPOHE ([4]; rate 0.0313 kg/ha): 0.0
- Preemergence herbicidal rating IPOHE ([4]; rate 0.0625 kg/ha): 0.0
- Preemergence herbicidal rating IPOHE ([4]; rate 0.1250 kg/ha): 2.0
- Preemergence herbicidal rating IPOHE ([4]; rate 0.2500 kg/ha): 7.0
- Preemergence herbicidal rating ZEAMX (ZEAMX (Corn, Field); rate 0.0156 kg/ha): 0.0
- Preemergence herbicidal rating ZEAMX (ZEAMX (Corn, Field); rate 0.0313 kg/ha): 0.0
- Preemergence herbicidal rating ZEAMX (ZEAMX (Corn, Field); rate 0.0625 kg/ha): 0.0
- Preemergence herbicidal rating ZEAMX (ZEAMX (Corn, Field); rate 0.1250 kg/ha): 1.0
- Preemergence herbicidal rating ZEAMX (ZEAMX (Corn, Field); rate 0.2500 kg/ha): 1.0
- Preemergence herbicidal rating CASOB (CASOB (Sicklepod) [5]; rate 0.0156 kg/ha): 0.0
- Preemergence herbicidal rating CASOB (CASOB (Sicklepod) [5]; rate 0.0313 kg/ha): 0.0
- Preemergence herbicidal rating CASOB (CASOB (Sicklepod) [5]; rate 0.0625 kg/ha): 0.0
- Preemergence herbicidal rating CASOB (CASOB (Sicklepod) [5]; rate 0.1250 kg/ha): 1.0
- Preemergence herbicidal rating CASOB (CASOB (Sicklepod) [5]; rate 0.2500 kg/ha): 1.0
- SAGPY herbicidal effect rating ([6]; 0.0313 kg/ha): 4.0
- SAGPY herbicidal effect rating ([6]; 0.0625 kg/ha): 4.0
- SAGPY herbicidal effect rating ([6]; 0.1250 kg/ha): 4.0
- SAGPY herbicidal effect rating ([6]; 0.2500 kg/ha): 4.0
- Herbicidal rating CYPIR (CYPIR (Rice Flatsedge); Rate 0.0313 kg/ha): 6.0
- Herbicidal rating CYPIR (CYPIR (Rice Flatsedge); Rate 0.0625 kg/ha): 6.0
- Herbicidal rating CYPIR (CYPIR (Rice Flatsedge); Rate 0.1250 kg/ha): 7.0
- Herbicidal rating CYPIR (CYPIR (Rice Flatsedge); Rate 0.2500 kg/ha): 9.0
- Preemergence herbicidal rating ABUTH (ABUTH (Velvetleaf); rate 0.0156 kg/ha): 2.0
- Preemergence herbicidal rating ABUTH (ABUTH (Velvetleaf); rate 0.0313 kg/ha): 9.0
- Preemergence herbicidal rating ABUTH (ABUTH (Velvetleaf); rate 0.0625 kg/ha): 9.0
- Preemergence herbicidal rating ABUTH (ABUTH (Velvetleaf); rate 0.1250 kg/ha): 9.0
- Preemergence herbicidal rating ABUTH (ABUTH (Velvetleaf); rate 0.2500 kg/ha): 9.0
- CASOB herbicidal rating (CASOB (Sicklepod) [7]; rate 0.0158 kg/ha): 8.0
- CASOB herbicidal rating (CASOB (Sicklepod) [7]; rate 0.0315 kg/ha): 6.0
- CASOB herbicidal rating (CASOB (Sicklepod) [7]; rate 0.0630 kg/ha): 7.0
- AMBEL herbicidal rating (AMBEL (Ragweed, Common); rate 0.0158 kg/ha): 5.0
- AMBEL herbicidal rating (AMBEL (Ragweed, Common); rate 0.0315 kg/ha): 9.0
- AMBEL herbicidal rating (AMBEL (Ragweed, Common); rate 0.0630 kg/ha): 6.0

— patent publication US20020137929A1, “1 - (3-heterocyclylphenyl) isothiourea, -isourea, -guanidine and -amidine herbicidal agents” (Intellectual Property Department, BASF Aktiengesellschaft, priority 1998, published 2002)
